Assay results: PubChem BioAssay (NCI)
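Assay format: 96-well plates, 48-hour exposure. Definition used: TGI = concentration required for complete inhibition of growth.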

Key:
Assay in all cases: inhibition of tumour cell growth, NCI panel, 48 h
786-0 renal = test system: 786-0 renal
A498 renal = test system: A498 renal
A549 NSCLC = test system: A549 NSCLC
ACHN renal = test system: ACHN renal
BT-549 breast = test system: BT-549 breast
CAKI-1 renal = test system: CAKI-1 renal
CCRF-CEM leukemia = test system: CCRF-CEM leukemia
COLO 205 colon = test system: COLO 205 colon
DU-145 prostate = test system: DU-145 prostate
EKVX NSCLC = test system: EKVX NSCLC
HCC-2998 colon = test system: HCC-2998 colon
HCT-116 colon = test system: HCT-116 colon
HCT-15 colon = test system: HCT-15 colon
HL-60(TB) leukemia = test system: HL-60(TB) leukemia
HOP-62 NSCLC = test system: HOP-62 NSCLC
HS 578T breast = test system: HS 578T breast
HT29 colon = test system: HT29 colon
IGROV1 ovarian = test system: IGROV1 ovarian
K-562 leukemia = test system: K-562 leukemia
KM12 colon = test system: KM12 colon
LOX IMVI melanoma = test system: LOX IMVI melanoma
M14 melanoma = test system: M14 melanoma
MALME-3M melanoma = test system: MALME-3M melanoma
MCF7 breast = test system: MCF7 breast
MDA-MB-231 breast = test system: MDA-MB-231 breast
MDA-MB-435 = test system: MDA-MB-435
MDA-N = test system: MDA-N
MOLT-4 leukemia = test system: MOLT-4 leukemia
NCI-H226 lung = test system: NCI-H226 lung
NCI-H23 lung = test system: NCI-H23 lung
NCI-H460 lung = test system: NCI-H460 lung
NCI-H522 lung = test system: NCI-H522 lung
NCI/ADR-RES ovarian = test system: NCI/ADR-RES ovarian
OVCAR-3 ovarian = test system: OVCAR-3 ovarian
OVCAR-4 ovarian = test system: OVCAR-4 ovarian
OVCAR-5 ovarian = test system: OVCAR-5 ovarian
OVCAR-8 ovarian = test system: OVCAR-8 ovarian
PC-3 prostate = test system: PC-3 prostate
RPMI-8226 leukemia = test system: RPMI-8226 leukemia
RXF 393 renal = test system: RXF 393 renal
SF-268 CNS = test system: SF-268 CNS
SF-295 CNS = test system: SF-295 CNS
SK-MEL-2 melanoma = test system: SK-MEL-2 melanoma
SK-MEL-28 melanoma = test system: SK-MEL-28 melanoma
SK-MEL-5 melanoma = test system: SK-MEL-5 melanoma
SK-OV-3 ovarian = test system: SK-OV-3 ovarian
SN12C renal = test system: SN12C renal
SNB-19 CNS = test system: SNB-19 CNS
SNB-75 CNS = test system: SNB-75 CNS
SR leukemia = test system: SR leukemia
SW-620 colon = test system: SW-620 colon
T-47D breast = test system: T-47D breast
TK-10 renal = test system: TK-10 renal
U251 CNS = test system: U251 CNS
UACC-257 melanoma = test system: UACC-257 melanoma
UACC-62 melanoma = test system: UACC-62 melanoma
UO-31 renal = test system: UO-31 renal
HOP-92 NSCLC = test system: HOP-92 NSCLC

c1cc(C2N3CCCN2CC3)ccn1 (centres undefined)
TGI (786-0 renal): > 100 µM | TGI (A498 renal): > 100 µM | TGI (A549 NSCLC): > 100 µM | TGI (ACHN renal): > 100 µM | TGI (BT-549 breast): > 100 µM | TGI (CAKI-1 renal): > 100 µM | TGI (CCRF-CEM leukemia): > 100 µM | TGI (COLO 205 colon): > 100 µM | TGI (DU-145 prostate): > 100 µM | TGI (EKVX NSCLC): > 100 µM | TGI (HCC-2998 colon): > 100 µM | TGI (HCT-116 colon): > 100 µM | TGI (HCT-15 colon): > 100 µM | TGI (HL-60(TB) leukemia): > 100 µM | TGI (HOP-62 NSCLC): > 100 µM | TGI (HS 578T breast): 67.7 µM | TGI (HT29 colon): > 100 µM | TGI (IGROV1 ovarian): > 100 µM | TGI (K-562 leukemia): > 100 µM | TGI (KM12 colon): > 100 µM | TGI (LOX IMVI melanoma): > 100 µM | TGI (M14 melanoma): > 100 µM | TGI (MALME-3M melanoma): 80.1 µM | TGI (MCF7 breast): > 100 µM | TGI (MDA-MB-231 breast): > 100 µM | TGI (MDA-MB-435): 89.2 µM | TGI (MDA-N): > 100 µM | TGI (MOLT-4 leukemia): > 100 µM | TGI (NCI-H226 lung): > 100 µM | TGI (NCI-H23 lung): > 100 µM | TGI (NCI-H460 lung): > 100 µM | TGI (NCI-H522 lung): 18.4 µM | TGI (NCI/ADR-RES ovarian): > 100 µM | TGI (OVCAR-3 ovarian): > 100 µM | TGI (OVCAR-4 ovarian): > 100 µM | TGI (OVCAR-5 ovarian): > 100 µM | TGI (OVCAR-8 ovarian): > 100 µM | TGI (PC-3 prostate): > 100 µM | TGI (RPMI-8226 leukemia): 71 µM | TGI (RXF 393 renal): > 100 µM | TGI (SF-268 CNS): 30.4 µM | TGI (SF-295 CNS): > 100 µM | TGI (SK-MEL-2 melanoma): > 100 µM | TGI (SK-MEL-28 melanoma): > 100 µM | TGI (SK-MEL-5 melanoma): > 100 µM | TGI (SK-OV-3 ovarian): > 100 µM | TGI (SN12C renal): > 100 µM | TGI (SNB-19 CNS): > 100 µM | TGI (SNB-75 CNS): > 100 µM | TGI (SR leukemia): > 100 µM | TGI (SW-620 colon): > 100 µM | TGI (T-47D breast): > 100 µM | TGI (TK-10 renal): > 100 µM | TGI (U251 CNS): > 100 µM | TGI (UACC-257 melanoma): > 100 µM | TGI (UACC-62 melanoma): > 100 µM | TGI (UO-31 renal): > 100 µM

CC(C)=CCC[C@@H](C)C1=C(O)C(Nc2ccccc2F)=C(C)C(=O)C1=O
TGI (786-0 renal): > 100 µM | TGI (A498 renal): 67.2 µM | TGI (A549 NSCLC): > 77.5 µM | TGI (ACHN renal): 49.5 µM | TGI (BT-549 breast): > 79.7 µM | TGI (CAKI-1 renal): 48.2 µM | TGI (CCRF-CEM leukemia): 5.86 µM | TGI (COLO 205 colon): > 68.9 µM | TGI (DU-145 prostate): > 67.8 µM | TGI (EKVX NSCLC): > 100 µM | TGI (HCC-2998 colon): > 100 µM | TGI (HCT-116 colon): 47.6 µM | TGI (HCT-15 colon): > 70.2 µM | TGI (HL-60(TB) leukemia): 5.61 µM | TGI (HOP-62 NSCLC): > 55.7 µM | TGI (HOP-92 NSCLC): > 65.3 µM | TGI (HS 578T breast): 54.8 µM | TGI (HT29 colon): > 100 µM | TGI (IGROV1 ovarian): > 69.5 µM | TGI (K-562 leukemia): > 100 µM | TGI (KM12 colon): > 100 µM | TGI (LOX IMVI melanoma): > 100 µM | TGI (M14 melanoma): > 57.6 µM | TGI (MALME-3M melanoma): 41.1 µM | TGI (MCF7 breast): > 90 µM | TGI (MDA-MB-231 breast): > 100 µM | TGI (MDA-MB-435): > 100 µM | TGI (MDA-N): > 100 µM | TGI (MOLT-4 leukemia): > 100 µM | TGI (NCI-H226 lung): > 78.7 µM | TGI (NCI-H23 lung): > 56.8 µM | TGI (NCI-H460 lung): > 100 µM | TGI (NCI/ADR-RES ovarian): 23 µM | TGI (OVCAR-3 ovarian): > 30.4 µM | TGI (OVCAR-4 ovarian): > 100 µM | TGI (OVCAR-5 ovarian): > 100 µM | TGI (OVCAR-8 ovarian): > 100 µM | TGI (PC-3 prostate): > 100 µM | TGI (RPMI-8226 leukemia): > 89.1 µM | TGI (RXF 393 renal): > 57.1 µM | TGI (SF-268 CNS): > 54 µM | TGI (SF-295 CNS): 30.4 µM | TGI (SK-MEL-2 melanoma): 68.3 µM | TGI (SK-MEL-28 melanoma): > 100 µM | TGI (SK-MEL-5 melanoma): 42.3 µM | TGI (SK-OV-3 ovarian): > 100 µM | TGI (SN12C renal): > 100 µM | TGI (SNB-19 CNS): > 100 µM | TGI (SNB-75 CNS): > 78.8 µM | TGI (SR leukemia): > 100 µM | TGI (SW-620 colon): > 100 µM | TGI (T-47D breast): 57.7 µM | TGI (TK-10 renal): > 100 µM | TGI (U251 CNS): > 100 µM | TGI (UACC-257 melanoma): > 100 µM | TGI (UACC-62 melanoma): > 79.3 µM | TGI (UO-31 renal): 47.7 µM
